US20230118497A1, “PYRAZOLE-CONTAINING POLYCYCLIC DERIVATIVE INHIBITOR, PREPARATION METHOD THEREFOR AND APPLICATION THEREOF” (Shanghai Hansoh Biomedical Co., Ltd., priority 2019, published 2023)

Columns and labels:
[1] = Pharmacokinetic assay in rats; format: in vivo; details: male, rat, po, SD rats, p.o. 5 mg/kg, plasma, 0.5% CMC-Na (1% Tween 80); for AUC(0-t): read-out: Area under curve AUC0-t; for MRT inf: read-out: Average residence time MRT0-∞; for half-life: read-out: Half life t1/2 (converted); for Tmax: read-out: Peak time tmax; for Cmax: read-out: Plasma concentration Cmax
Protocol: Test Example 4. Pharmacokinetic Assay in Rats
SD rats were used as test animals. The pharmacokinetic behavior of the compounds of Examples was studied in rat body (plasma) by orally administration at a dose of 5 mg/kg.
Male SD rats (3 rats per group), purchased from Shanghai Jiesijie Laboratory Animal Co., LTD, with Certificate No.: SCXK (Shanghai) 2013-0006 N0.311620400001794.
5 g of hydroxyethyl cellulose (HEC, CMC-Na, viscosity: 800-1200 Cps) was weighed and dissolved in 1000 mL of purified water, followed by addition of 10 g of Tween80.
After an overnight fast, male SD rats (3 rats per group) were administered p.o. with the test compound at a dose of 5 mg/kg and a volume of 10 mL/kg.
0.2 mL of blood was taken from the jugular vein of the rat before administration and at 0, 0.5, 1, 2, 4, 6, 8 and 24 hours after administration. The samples were stored in EDTA-K2 tubes, and centrifuged for 6 minutes at 4° C., 6000 rpm to separate the plasma. The plasma samples were stored at −80° C.
1) 160 μL of acetonitrile was added to 40 μL of the plasma sample for precipitation, and then the mixture was centrifuged at 3500×g for 5 to 20 minutes.
2) After the above process, 100 μL of the supernatant was taken to analyze the concentration of the test compound by LC/MS/MS.
2.7 Liquid Chromatography Analysis • Liquid chromatography condition: Shimadzu LC-20AD pump • Mass spectrometry condition: AB Sciex API 4000 mass spectrometer • Chromatographic column: phenomenex Gemiu 5 um C18 50×4.6 mm • Mobile phase: Eluent A was 0.1% formic acid in water, and Eluent B was acetonitrile • Flow rate: 0.8 mL/min • Elution time: 0-4.0 minutes, the eluent is as follows:
The main parameters of pharmacokinetics were calculated by WinNonlin 8.2.

[2] = Metabolic stability in liver microsome (human); format: in vitro ADME; details: human liver microsome 0.5 mg/mL, compound 1 μM; for t1/2 / half-life at 1 μM: NADPH/UDPGA; for half-life at 1 μM: liver microsomes
Protocol: (§1) Test Example 5. Assay of Metabolic Stability in Liver Microsome
(§2) The objective of the experiment is to determine the stability of the compounds of the Examples in liver microsome of mouse, rat, dog and human.
(§3) Formulation of the working solution of the compound: The stock solution of the compound was added to phosphate buffer, and the final concentration was 20 μM.
(§4) Liver microsome was diluted with 100 mM phosphate buffer to obtain a final concentration of 0.625 mg/mL.
(§5) NADPH (reduced nicotinamide adenine dinucleotide phosphate) and UDPGA (uridine diphosphate glucuronic acid) were weighed respectively, followed by addition of 100 mM phosphate buffer. The final concentrations were 20 mM.
(§6) 1 mg of Alamethicin was weighed, to which 200 μL of DMSO was added to obtain a 5 mg/mL solution. The solution was diluted with phosphate buffer to obtain a final concentration of 50 μg/mL.
(§7) 2.5 Formulation of the reaction stop solution Stop solution: Cold acetonitrile containing 100 ng/mL labetalol hydrochloride and 400 ng/mL tolbutamide as internal standards.
(§8) 400 μL of the prepared liver microsome, 25 μL of the working solution of the compound and 25 μL of Alamethicin were added to a 96-well plate successively, which was then pre-incubated at 37° C. for 10 min. 50 μL of the prepared NADPH/UDPGA was added to initiate the reaction, and the plate was incubated at 37° C. The total volume of the reaction system was 500 μL. The final contents of the components were as follows: […]

[3] = Plasma protein binding rate (mouse); format: in vitro ADME; details: 37° C. 6 h
Protocol: (§9) Test Example 6. Assay of Plasma Protein Binding Rate
(§10) The objective of the experiment is to determine the plasma protein binding of the compounds of the Examples in plasma.
(§11) The compound of the Example was formulated into 1 mM solution A with DMSO;
(§12) The solution A was added to the plasma solution to obtain 5 μM solution B;
(§13) 1) 200 μL of solution B was added to the inside of the membrane;
(§14) 2) […] of PBS was added to the outside of the membrane;
(§15) 3) Incubation in a water bath at 37° C. for 6 h;
(§16) 4) The sample was diluted and analyzed by mass spectrometry.

[4] = Plasma protein binding rate (rat); format: in vitro ADME; details: 37° C. 6 h
Protocol: as §9, §10, §11, §12, §13, §14, §15, §16

[5] = Plasma protein binding rate (dog); format: in vitro ADME; details: 37° C. 6 h
Protocol: as §9, §10, §11, §12, §13, §14, §15, §16

[6] = Plasma protein binding rate (human); format: in vitro ADME; details: 37° C. 6 h
Protocol: as §9, §10, §11, §12, §13, §14, §15, §16

[7] = molecular target: T1, CYP450 enzyme isoform 2C9 (Homo sapiens, UniProt P11712); assay: CYP enzyme single-point inhibition assay, 2C9; format: in vitro ADME; details: human liver microsome, single-point method
T1 construct: single-point method using human liver microsome incubation system; from tissue; host or cells: human liver microsomes
Protocol: Test Example 7. CYP Enzyme Single-Point Inhibition Assay
The inhibition of the compounds on CYP450 enzyme isoformwas rapidly predicted by single-point method using human liver microsome incubation system.
2.5 mM NADPH: 4.165 mg of NADPH (reduced nicotinamide adenine dinucleotide phosphate) was weighed, followed by addition of 100 mM phosphate buffer to 2 mL. 0.25 mg/mL microsome solution: 4 mL of 100 mM phosphate buffer was added to 50 μL of 20 mg/mL microsome solution and mixed well.
The test compound of the Example was weighed, diluted to 10 mM with DMSO and then to 100 μM with 100 mM phosphate buffer.
1. 40 μL of liver microsome, 10 μL of substrate and 10 μL of the test compound were added to a 96-well plate and pre-incubated for 3 min.
2. 40 μL of NADPH was added.
3. 300 μL of acetonitrile stop solution containing internal standard was added at 20 min.
4. The sample was centrifuged and injected.

[8] = Metabolic stability in liver microsome (dog); format: in vitro ADME; details: dog liver microsome 0.5 mg/mL, compound 1 μM; for half-life at 1 μM: liver microsomes, NADPH/UDPGA
Protocol: as §1, §2, §3, §4, §5, §6, §7, §8

T1 sequence (P11712 whole entry, canonical isoform): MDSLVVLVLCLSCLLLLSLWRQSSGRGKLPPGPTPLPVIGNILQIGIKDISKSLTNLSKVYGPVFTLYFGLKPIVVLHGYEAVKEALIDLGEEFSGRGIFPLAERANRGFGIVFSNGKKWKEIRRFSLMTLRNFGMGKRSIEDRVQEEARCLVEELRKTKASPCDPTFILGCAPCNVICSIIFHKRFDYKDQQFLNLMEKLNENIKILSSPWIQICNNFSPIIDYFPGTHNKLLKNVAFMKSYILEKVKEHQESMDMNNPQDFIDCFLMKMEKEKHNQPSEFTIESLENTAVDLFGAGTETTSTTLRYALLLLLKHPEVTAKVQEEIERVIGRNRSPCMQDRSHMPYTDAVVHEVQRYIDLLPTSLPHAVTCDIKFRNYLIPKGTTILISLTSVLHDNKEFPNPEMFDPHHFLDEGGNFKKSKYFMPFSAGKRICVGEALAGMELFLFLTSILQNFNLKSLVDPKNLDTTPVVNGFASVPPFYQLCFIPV

Compound | AUC(0-t) [1] [µg·h/mL] | MRT inf [1] [h] | half-life [1] [h] | Tmax [1] [h] | Cmax [1] [µg/mL] | Remaining (%, 60 min) [2] [%] | t1/2 [2] | fraction unbound at 6 h, 5 μM [3] | fraction unbound at 6 h, 5 μM [4] | fraction unbound at 6 h, 5 μM [5] | fraction unbound at 6 h, 5 μM [6] | IC50 [7] [µM] | Remaining (%, 60 min) [8] [%] | half-life at 1 μM [8] [h] | half-life at 1 μM [2] [h]
CCc1cc2n(CC(=O)Nc3ccc(F)cn3)c(=O)c3ccc(C(F)(F)F)nc3n2n1 [Example 34, 2-(2-Ethyl-5-oxo-8-(trifluoromethyl)pyrazolo[1,5-a]pyrido[3,2-e]pyrimidin-4(5H)-yl)-N-(5-fluoropyridin-2-yl)acetamide] | 5.78 | 6.2 | 3.5 | 4 | 0.904 | 113.9 | ∞ | 0.043 | 0.044 | 0.032 | 0.015 | > 100 |  |  | 
O=C(Cn1c(=O)c2ccc(C(F)(F)F)nc2n2nc(Br)cc12)Nc1ccc(F)cn1 [Example 61-A, 2-(2-bromo-5-oxo-8-(trifluoromethyl)pyrazolo[1,5-a]pyrido[3,2-e]pyrimidin-4(5H)-yl)-N-(5-fluoropyridin-2-yl)acetamide] | 12 | 5.8 | 8 | 2 | 1.55 | 100.4 | ∞ | 0.044 | 0.027 | 0.037 | 0.016 | > 100 | 96.0 | 15.6 | 
N#Cc1cc2n(CC(=O)Nc3ccc(F)cn3)c(=O)c3ccc(C(F)(F)F)nc3n2n1 [Example 68, 2-(2-Cyano-5-oxo-8-(trifluoromethyl)pyrazolo[1,5-a]pyrido[3,2-e]pyrimidin-4(5H)-yl)-N-(5-fluoropyridin-2-yl)acetamide] | 9.85 | 3.5 | 1.8 | 4 | 1.88 | 101.2 |  | 0.162 | 0.11 | 0.084 | 0.066 | > 100 | 99.0 | 22.5 | 23.4
O=C(Cn1c(=O)c2ccc(C(F)(F)F)nc2n2nccc12)Nc1ccc(F)cn1 [Example 78, N-(5-Fluoropyridin-2-yl)-2-(5-oxo-8-(trifluoromethyl)pyrazolo[1,5-a]pyrido[3,2-e]pyrimidin-4(5H)-yl)acetamide] | 6.81 | 3.7 | 1.7 | 2 | 1.22 | 97.5 |  | 0.084 | 0.061 | 0.147 | 0.103 | > 100 | 93.4 | 11.2 | 14.7
N#Cc1cnn2c3nc(C(F)(F)F)ccc3c(=O)n(CC(=O)Nc3ccc(F)cn3)c12 [Example 80, 2-(3-Cyano-5-oxo-8-(trifluoromethyl)pyrazolo[1,5-a]pyrido[3,2-e]pyrimidin-4(5H)-yl)-N-(5-fluoropyridin-2-yl)acetamide] | 21.3 | 13.6 | 11.3 | 4 | 2.19 |  |  | 0.256 | 0.234 | 0.135 | 0.135 |  |  |  | 
